{"source": "patent US20250282828A1", "about": "“PEPTIDES FOR THE TREATMENT OF RESPIRATORY INFECTIONS OF VIRAL ORIGIN” (CENTRO DE INGENIERÍA GENÉTICA Y BIOTECNOLOGÍA, priority 2020, published 2025)", "key": {"SARS-CoV-2 [1]": {"test_system": "SARS-CoV-2", "assay": "microbe, parasite or virus in culture", "details": "Severe acute respiratory syndrome coronavirus 2, Vero C1008, read-out: IC50 Compound"}, "Dengue 2 virus": {"test_system": "Dengue 2 virus", "assay": "Dengue 2 virus replication in primary cultures of lung cells (PFU in VeroE6)", "type": "cell-based", "details": "50 μM, 48 hours", "description": "The cultures were treated with the peptides for 2 or 24 hours, at concentrations of 0.01 to 100 μM before viral challenge. The medium was discarded and the cells were infected with Dengue 2 virus, at an MOI of 10 for 2 hours at 37° C. and 5% CO2. The virus was eliminated, a wash was then performed and the cultures were treated again with peptides in DMEM medium, and incubated for 48 hours at 37° C. and 5% CO2. Subsequently, the cultures were collected to assess viral performance on VeroE6 cells. For this, the cells were seeded in 24-well plates and when they reached confluence they were infected with serial 10-fold dilutions of the supernatants, incubated for 1 hour at 37° C. and 5% CO2. Next, a wash was carried out with PBS, and a layer of agar in 2× DMEM (1:1) added. The layer was allowed to solidify and incubated for 48 hours at 37° C. 5% CO2. The plates were stained with crystal violet, for the determination of the number of PFUs. The peptides inhibited between 68 and 88% of viral replication (Table 5)."}, "SARS-CoV-2 [2]": {"test_system": "SARS-CoV-2", "details": "72 h"}, "[3]": {"test_system": "Parainfluenza virus type 3 (HPIV3)", "type": "cell-based", "details": "50 μM; HAE, 3 days"}, "human bocavirus (HBoV)": {"test_system": "human bocavirus (HBoV)", "assay": "Human bocavirus replication in tracheal HAE (qPCR NS1 region)", "type": "cell-based", "details": "50 μM, 72 hours"}, "SARS-CoV-2 [4]": {"test_system": "SARS-CoV-2"}, "AdV 7 Gomen strain": {"test_system": "AdV 7 Gomen strain", "assay": "Adenovirus type 7 replication in bronchial HAE (qPCR)", "type": "cell-based", "details": "50 μM, 24 hours"}, "ZIKV E protein (Zika)": {"target": "T1, ZIKV E protein (Zika) (Zika virus, UniProt A0A024B7W1)", "T1 construct": "the envelope protein of the Zika virus (ZIKV E)", "assay": "BIACORE surface plasmon resonance interaction with immobilized peptide", "type": "binding"}, "Protein N (SARS-CoV-2)": {"target": "Protein N (SARS-CoV-2) (Severe acute respiratory syndrome coronavirus 2, UniProt P0DTC9)", "assay": "BIACORE surface plasmon resonance interaction with immobilized peptide", "type": "binding", "details": "analyte 10-200 nM"}, "[5]": {"test_system": "herpes simplex virus type 1 (HSV-1)", "assay": "HSV-1 replication in primary explants of human nasal mucosa (qPCR)", "type": "cell-based", "details": "36 hours", "description": "The replication of herpes simplex virus type 1 (HSV-1) was performed in primary explants of human nasal mucosa, according to Glorieux et al. (Glorieux et al. 2011, PLoS ONE, 6(7): e22160, doi: 10.1371/journal.pone.0022160). […] Afterwards, the cultures were washed and kept at 37° C. and 5% CO2 for 36 hours, in presence of the peptides in culture medium. The cultures were harvested, and HSV-1 was quantified by qPCR. The percentages of viral inhibition ranged from 70 to 92% in presence of the peptides (Table 5)."}, "[6]": {"test_system": "capsid protein of the Influenza H1N1 virus", "assay": "BIACORE surface plasmon resonance interaction with immobilized peptide", "type": "binding"}, "[7]": {"target": "T2, Dengue 2 virus capsid protein (Dengue virus type 2, UniProt P29990)", "T2 construct": "with the Dengue 2 virus capsid protein", "assay": "BIACORE surface plasmon resonance interaction with immobilized peptide", "type": "binding"}, "NS1-D2 (Dengue)": {"target": "T3, NS1-D2 (Dengue) (Dengue virus type 2, UniProt P29990)", "T3 construct": "the non-structural protein 1 of the Dengue virus 2 (NS1-D2)", "assay": "BIACORE surface plasmon resonance interaction with immobilized peptide", "type": "binding, Dengue virus 2"}, "[8]": {"test_system": "respiratory syncytial virus (RSV)", "assay": "Respiratory syncytial virus replication in bronchial HAE (RT-qPCR)", "type": "cell-based", "details": "50 μM, 10 days"}, "SARS-CoV-2 [9]": {"test_system": "SARS-CoV-2", "remark": "listed apart in the source"}, "Influenza A H1N1": {"test_system": "Influenza A H1N1", "type": "cell-based", "details": "50 μM; tracheo-bronchial HAE"}, "[10]": {"target": "T4, Dengue 2 virus capsid protein (Dengue virus 2), P29990", "T4 chain": "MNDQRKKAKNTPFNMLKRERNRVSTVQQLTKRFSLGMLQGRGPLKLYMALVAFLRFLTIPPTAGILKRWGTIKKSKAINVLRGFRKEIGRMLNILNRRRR", "assay": "SPR (BIACORE)"}, "[11]": {"target": "T5, envelope protein of the Zika virus (ZIKV E) (Zika virus), Q32ZE1", "T5 chain": "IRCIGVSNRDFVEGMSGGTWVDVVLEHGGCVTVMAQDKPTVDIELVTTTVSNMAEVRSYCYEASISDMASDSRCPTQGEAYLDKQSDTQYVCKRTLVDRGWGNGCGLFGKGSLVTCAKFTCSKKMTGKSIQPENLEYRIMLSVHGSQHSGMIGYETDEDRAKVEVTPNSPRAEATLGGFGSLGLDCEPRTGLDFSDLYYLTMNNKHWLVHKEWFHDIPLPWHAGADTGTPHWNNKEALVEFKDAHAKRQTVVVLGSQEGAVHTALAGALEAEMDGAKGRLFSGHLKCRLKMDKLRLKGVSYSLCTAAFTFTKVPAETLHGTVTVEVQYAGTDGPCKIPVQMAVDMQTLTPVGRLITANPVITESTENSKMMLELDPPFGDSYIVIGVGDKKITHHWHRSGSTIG", "assay": "SPR (BIACORE)"}, "[12]": {"target": "nucleocapsid protein of the SARS-CoV-2 virus (N protein) (SARS-CoV-2), P0DTC9", "assay": "SPR (BIACORE)"}}, "note": "Like-named read-outs stand apart in the source and are kept apart here. Positions of bridges follow the written chain, without caps; N, C: chain ends. Residues, ends and D or L forms follow the SMILES beside them. No end group written: not given here."}
{"molecule": "NC(=O)c1nc(F)c[nH]c1=O", "note": "[Favipiravir]", "values": [{"measurement": "IC50", "setting": "SARS-CoV-2 [1]", "value": 65.3, "unit": "µM"}]}
{"molecule": "RVTQANLNDRLASLYDKV [SEQ ID NO: 8]", "values": [{"measurement": "Dengue 2 Inhib. %", "setting": "Dengue 2 virus", "value": 72, "unit": "%"}, {"measurement": "Bronchial HAE Inhibition %", "setting": "SARS-CoV-2 [2]; 100 μM", "value": 92, "unit": "%"}, {"measurement": "Nasal HAE Inhibition %", "setting": "SARS-CoV-2 [2]; 100 μM", "value": 88, "unit": "%"}, {"measurement": "Parainfluenza Type 3 Inhib. %", "setting": "[3]", "value": 73, "unit": "%"}, {"measurement": "Bocavirus HBoV-1 Inhib. %", "setting": "human bocavirus (HBoV)", "value": 87, "unit": "%"}, {"measurement": "Inhibition %", "setting": "SARS-CoV-2 [4]; 96 h, 100 μM", "value": 90.2, "unit": "%"}]}
{"molecule": "NLNDRLASLYDKV [SEQ ID NO: 15]", "values": [{"measurement": "Adenovirus Ad7 Inhib. %", "setting": "AdV 7 Gomen strain", "value": 78, "unit": "%"}, {"measurement": "Kd", "setting": "ZIKV E protein (Zika)", "value": 0.0624, "unit": "µM"}, {"measurement": "interaction", "setting": "ZIKV E protein (Zika)", "value": "showed interaction"}, {"measurement": "Kd", "setting": "Protein N (SARS-CoV-2)", "value": 7.82, "unit": "µM"}, {"measurement": "Herpes simplex HSV-1 Inhib. %", "setting": "[5]; 50 μM", "value": 81, "unit": "%"}, {"measurement": "Bronchial HAE Inhibition %", "setting": "SARS-CoV-2 [2]; 50 μM", "value": 90, "unit": "%"}, {"measurement": "Nasal HAE Inhibition %", "setting": "SARS-CoV-2 [2]; 50 μM", "value": 86, "unit": "%"}, {"measurement": "Kd", "setting": "[6]", "value": 0.189, "unit": "µM"}, {"measurement": "interaction", "setting": "[6]", "value": "showed interaction"}, {"measurement": "Parainfluenza Type 3 Inhib. %", "setting": "[3]", "value": 69, "unit": "%"}, {"measurement": "Inhibition %", "setting": "SARS-CoV-2 [4]; 96 h, 50 μM", "value": 87.1, "unit": "%"}, {"measurement": "Kd", "setting": "[7]", "value": 1.27, "unit": "µM"}, {"measurement": "interaction", "setting": "NS1-D2 (Dengue)", "value": "showed interaction"}]}
{"molecule": "RVTQMNLNDRLASLYDAV [SEQ ID NO: 13]", "values": [{"measurement": "Adenovirus Ad7 Inhib. %", "setting": "AdV 7 Gomen strain", "value": 76, "unit": "%"}, {"measurement": "Herpes simplex HSV-1 Inhib. %", "setting": "[5]; 50 μM", "value": 78, "unit": "%"}, {"measurement": "Bronchial HAE Inhibition %", "setting": "SARS-CoV-2 [2]; 50 μM", "value": 89, "unit": "%"}, {"measurement": "Nasal HAE Inhibition %", "setting": "SARS-CoV-2 [2]; 50 μM", "value": 79, "unit": "%"}, {"measurement": "Sincitial respiratory virus Inhib. %", "setting": "[8]", "value": 91, "unit": "%"}, {"measurement": "Parainfluenza Type 3 Inhib. %", "setting": "[3]", "value": 90, "unit": "%"}, {"measurement": "Inhibition %", "setting": "SARS-CoV-2 [4]; 96 h, 100 μM", "value": 90.5, "unit": "%"}]}
{"molecule": "CSCC[C@@H]1NC(=O)[C@H](Cc2c[nH]c3ccccc23)NC(=O)[C@@H](NC(=O)[C@H](C)NC(=O)[C@H](CCC(N)=O)NC(=O)[C@@H]2CCCN2C(=O)[C@@H]2CCCN2C(=O)[C@H](CCCNC(=N)N)NC(=O)[C@H](CCCNC(=N)N)NC(=O)[C@H](CCCNC(=N)N)NC(=O)[C@H](CCC(N)=O)NC(=O)[C@H](CCCNC(=N)N)NC(=O)[C@H](CCCNC(=N)N)NC(=O)[C@H](CCCCN)NC(=O)[C@H](CCCCN)NC(=O)[C@H](CCCNC(=N)N)NC(=O)CN)CSSC[C@@H](C(=O)O)NC(=O)[C@H]([C@@H](C)O)NC(=O)CNC(=O)[C@H](CC(C)C)NC(=O)[C@H](Cc2c[nH]cn2)NC(=O)[C@H](CCCNC(=N)N)NC(=O)[C@@H]2CCCN2C(=O)[C@H](CO)NC1=O", "note": "[Peptide SEQ ID NO: 23] (H-GRKKRRQRRRPPQACWMSPRHLGTC-OH; disulfide 15-25; N-terminus and C-terminus assumed)", "values": [{"measurement": "IC50", "setting": "SARS-CoV-2 [9]", "value": 3.8, "unit": "µM"}]}
{"molecule": "SEQ ID NO: 20: synthetic peptide related to SEQ ID NO: 1, obtained by solid phase synthesis (RVTQMNLNDRLASLYDKV; Description of the Artificial Sequence synthetic peptide where N8 is a D amino acid)", "values": [{"measurement": "Herpes simplex HSV-1 Inhib. %", "setting": "[5]; 100 μM", "value": 70, "unit": "%"}, {"measurement": "Parainfluenza Type 3 Inhib. %", "setting": "[3]", "value": 79, "unit": "%"}, {"measurement": "Bocavirus HBoV-1 Inhib. %", "setting": "human bocavirus (HBoV)", "value": 67, "unit": "%"}, {"measurement": "Inhibition %", "setting": "SARS-CoV-2 [4]; 50 µM", "value": 69.8, "unit": "%"}]}
{"molecule": "NDRLASLYDKV [SEQ ID NO: 14]", "values": [{"measurement": "Kd", "setting": "ZIKV E protein (Zika)", "value": 3.2, "unit": "µM"}, {"measurement": "interaction", "setting": "ZIKV E protein (Zika)", "value": "showed interaction"}, {"measurement": "Dengue 2 Inhib. %", "setting": "Dengue 2 virus", "value": 70, "unit": "%"}, {"measurement": "Kd", "setting": "Protein N (SARS-CoV-2)", "value": 1.14, "unit": "µM"}, {"measurement": "Sincitial respiratory virus Inhib. %", "setting": "[8]", "value": 82, "unit": "%"}, {"measurement": "Kd", "setting": "[6]", "value": 4.67, "unit": "µM"}, {"measurement": "interaction", "setting": "[6]", "value": "showed interaction"}, {"measurement": "Influenza A H1N1 Inhib. %", "setting": "Influenza A H1N1", "value": 79, "unit": "%"}, {"measurement": "Inhibition %", "setting": "SARS-CoV-2 [4]; 96 h, 50 μM", "value": 83.2, "unit": "%"}, {"measurement": "Kd", "setting": "[7]", "value": 5.91, "unit": "µM"}, {"measurement": "interaction", "setting": "NS1-D2 (Dengue)", "value": "showed interaction"}]}
{"molecule": "NDRLASLYDKV (modifications not checked)", "note": "[Peptide SEQ ID NO: 14]", "values": [{"measurement": "Kd", "setting": "[10]", "value": 5.91, "unit": "µM"}, {"measurement": "Kd", "setting": "[11]", "value": 3.2, "unit": "µM"}, {"measurement": "Kd", "setting": "[12]", "value": 1.14, "unit": "µM"}]}
{"molecule": "NLNDRLASLYDKV (modifications not checked)", "note": "[Peptide SEQ ID NO: 15]", "values": [{"measurement": "Kd", "setting": "[10]", "value": 1.27, "unit": "µM"}, {"measurement": "Kd", "setting": "[11]", "value": 0.0624, "unit": "µM"}, {"measurement": "Kd", "setting": "[12]", "value": 7.82, "unit": "µM"}]}
